System: CVD (CHD or stroke)
Assay: WOSCOPS: SNP by pravastatin treatment interaction, logistic regression (synergy index), CVD endpoint
Assay type: in vivo, human
Conditions: for OR: WOSCOPS; for WOSCOPS OR: endpoint CVD
Text: CARE was a secondary prevention trial and WOSCOPS was a primary prevention trial.
The CHD endpoint was defined in the analyses herein of CARE as a composite endpoint of fatal CHD, definite non-fatal MI, or revascularization, and was defined in the analyses herein of WOSCOPS as a composite endpoint of death from CHD, nonfatal MI, or revascularization. In both the CARE and WOSCOPS analyses herein, the CVD endpoint was defined as a composite endpoint of CHD or stroke. […] Revascularization, which can include percutaneous transluminal coronary angioplasty (PTCA), stent placement, and coronary artery bypass graft (CABG), are medical interventions that indicate the presence of CHD.
Cohort and case-only study designs were used to identify SNPs associated with response to statin treatment.
For each SNP, a logistic regression model having treatment status as the dependent variable and SNP as the independent predictor variable was performed, with terms for age, sex and race included in the model as covariates. The anti-log of the regression coefficient corresponding to the SNP is an estimate of the synergy index (SI) (Davis et al., “Imputing gene-treatment interactions when the genotype distribution is unknown using case-only and putative placebo analyses-a new method for the Genetics of Hypertension Associated Treatment (GenHAT) study”, Statistics in Medicine 23: (2004), pages 2413-2427). The SI is a ratio of odds ratios: for example in the CARE and WOSCOPS studies, the SI represents the factor by which the odds-ratio of statin treatment, compared with placebo, among major homozygous individuals is multiplied by in order to obtain the odds-ratio of treatment vs. placebo among heterozygous individuals; and multiplied by a second time to obtain the odds-ratio of treatment vs. placebo in minor homozygous individuals. […] In a randomized clinical trial, genotype and treatment are independent by design.

What does the source list for `CC[C@H](C)C(=O)O[C@H]1C[C@H](O)C=C2C=C[C@H](C)[C@H](CC[C@@H](O)C[C@@H](O)CC(=O)O)[C@H]21` [Pravastatin, pravastatin]?
OR (rs1884902 allele C REC Imputed): 1.796; OR (rs1913201 allele G ADD Imputed): 0.7632; OR (rs1913201 allele G DOM Imputed): 0.5772; OR (rs1944279 allele A ADD Imputed): 1.444; OR (rs1987179 allele T DOM Imputed): 0.6667; OR (rs1990023 allele T DOM Imputed): 0.6024; OR (rs2016194 allele G DOM Imputed): 0.602; OR (rs2024789 allele C ADD Imputed): 0.7464; OR (rs2024902 allele A ADD Imputed): 2.395; OR (rs2024902 allele A DOM Imputed): 2.659; OR (rs2025107 allele A ADD Imputed): 2.387; OR (rs2025107 allele A DOM Imputed): 2.904; OR (rs2025108 allele T ADD Imputed): 2.387; OR (rs2025108 allele T DOM Imputed): 2.904; OR (rs2062448 allele T ADD Imputed): 0.4148; OR (rs2062448 allele T DOM Imputed): 0.4153; OR (rs2063591 allele C ADD Imputed): 0.7711; OR (rs2063591 allele C DOM Imputed): 0.5884; OR (rs2065604 allele C DOM Imputed): 0.4711; OR (rs2066238 allele T DOM Imputed): 0.6821; OR (rs2068051 allele G ADD Imputed): 0.6426; OR (rs2095586 allele A DOM Imputed): 1.351; OR (rs2108426 allele C DOM Imputed): 0.5994; OR (rs2110664 allele A DOM Imputed): 1.697; OR (rs2132242 allele A DOM Imputed): 0.6291; OR (rs2151644 allele T DOM Imputed): 0.4711; OR (rs2158958 allele A DOM Imputed): 0.6021; OR (rs2158961 allele G DOM Imputed): 0.6113; OR (rs2164099 allele G ADD Imputed): 1.424; OR (rs2173254 allele G REC Imputed): 0.3756; OR (rs2188079 allele C ADD Imputed): 1.5; OR (rs2190304 allele G REC Imputed): 0.628; OR (rs2190597 allele T DOM Imputed): 0.7825; OR (rs2190598 allele T DOM Imputed): 0.6021; OR (rs2190600 allele A DOM Imputed): 0.6022; OR (rs2218084 allele T REC Imputed): 4.673; OR (rs2290193, rec, Caseonly, CVD, pravastatin vs placebo): 0.35; OR (rs2626130, add, Caseonly, CVD, pravastatin vs placebo): 1.37; OR (rs4289236, add, Caseonly, CVD, pravastatin vs placebo): 1.49; OR (rs4611134, rec, Caseonly, CVD, pravastatin vs placebo): 1.56; OR (rs4643388, add, Caseonly, CVD, pravastatin vs placebo): 1.38; OR (rs6911817, add, Caseonly, CVD, pravastatin vs placebo): 5.32; OR (rs7327364, dom, Caseonly, CVD, pravastatin vs placebo): 0.64; OR (rs7497613, rec, Caseonly, CVD, pravastatin vs placebo): 0.43; OR (rs7767024, add, Caseonly, CVD, pravastatin vs placebo): 1.69; OR (rs8051893, dom, Caseonly, CVD, pravastatin vs placebo): 0.63; OR (rs9658127, add, Caseonly, CVD, pravastatin vs placebo): 5.32; OR (rs10088524, dom, Caseonly, CVD, pravastatin vs placebo): 1.80; OR (rs11925875, dom, Caseonly, CVD, pravastatin vs placebo): 0.57; OR (rs17076972 allele C REC Imputed): 1.85; OR (rs17189710 allele T ADD Imputed): 1.429; OR (rs17196143 allele A ADD Imputed): 1.543; OR (rs17353809 allele G ADD Imputed): 1.616; OR (rs17446418 allele G DOM Imputed): 0.6878; OR (rs17530747 allele T DOM Imputed): 0.6878; OR (rs17546598, dom, Caseonly, CVD, pravastatin vs placebo): 2.07; OR (rs17604285 allele C ADD Imputed): 0.4148; OR (rs17604285 allele C DOM Imputed): 0.4153; OR (rs17662322 allele T DOM Imputed): 0.6835; OR (rs17769826 allele T ADD Imputed): 1.616; OR (rs17821641 allele T ADD Imputed): 1.571; WOSCOPS OR (rs151806, source cohort, model dom): 0.67; WOSCOPS OR (rs205279, source Caseonly, model add): 1.60; WOSCOPS OR (rs312929, source cohort, model add): 0.79; WOSCOPS OR (rs316720, source cohort, model add): 0.78; WOSCOPS OR (rs354342, source Caseonly, model add): 0.62; WOSCOPS OR (rs610118, source Caseonly, model dom): 0.62; WOSCOPS OR (rs624460, source cohort, model add): 0.74; WOSCOPS OR (rs669684, source cohort, model add): 0.77; WOSCOPS OR (rs945020, source cohort, model dom): 0.72; WOSCOPS OR (rs1035618, source Caseonly, model add): 1.48; WOSCOPS OR (rs1051344, source cohort, model dom): 0.64; WOSCOPS OR (rs1167245, source Caseonly, model dom): 0.51; WOSCOPS OR (rs1349282, source cohort, model dom): 0.55; WOSCOPS OR (rs1861326, source Caseonly, model dom): 0.67; WOSCOPS OR (rs2023650, source Caseonly, model add): 0.62; WOSCOPS OR (rs2145540, source Caseonly, model dom): 0.70; WOSCOPS OR (rs2157673, source Caseonly, model add): 1.56; WOSCOPS OR (rs2231496, source Caseonly, model add): 0.67; WOSCOPS OR (rs2268650, source Caseonly, model dom): 0.71; WOSCOPS OR (rs2376764, source Caseonly, model rec): 0.48; WOSCOPS OR (rs2492367, source cohort, model add): 0.68; WOSCOPS OR (rs2495295, source Caseonly, model dom): 0.66; WOSCOPS OR (rs2534752, source cohort, model dom): 1.74; WOSCOPS OR (rs2695026, source Caseonly, model add): 0.61; WOSCOPS OR (rs2793086, source Caseonly, model add): 0.72; WOSCOPS OR (rs2843171, source Caseonly, model dom): 0.61; WOSCOPS OR (rs3213616, source cohort, model add): 0.62; WOSCOPS OR (rs3798544, source Caseonly, model dom): 1.78; WOSCOPS OR (rs4243071, source Caseonly, model rec): 0.41; WOSCOPS OR (rs4626316, source cohort, model dom): 0.38; WOSCOPS OR (rs4866354, source Caseonly, model dom): 0.31; WOSCOPS OR (rs4869033, source Caseonly, model rec): 0.47; WOSCOPS OR (rs4986146, source cohort, model add): 0.66; WOSCOPS OR (rs4993917, source Caseonly, model dom): 0.67; WOSCOPS OR (rs5017584, source Caseonly, model rec): 1.98; WOSCOPS OR (rs5021480, source Caseonly, model rec): 1.87; WOSCOPS OR (rs7179134, source cohort, model rec): 3.50; WOSCOPS OR (rs7612715, source cohort, model add): 0.55; WOSCOPS OR (rs7671659, source cohort, model dom): 1.43; WOSCOPS OR (rs9292827, source Caseonly, model dom): 0.27; WOSCOPS OR (rs9375683, source cohort, model dom): 1.31; WOSCOPS OR (rs9487284, source cohort, model dom): 0.70; WOSCOPS OR (rs9896077, source cohort, model dom): 0.71; WOSCOPS OR (rs10088505, source Caseonly, model dom): 1.78; WOSCOPS OR (rs10444402, source Caseonly, model add): 0.65; WOSCOPS OR (rs10494924, source Caseonly, model dom): 0.68; WOSCOPS OR (rs10517923, source Caseonly, model rec): 1.60; WOSCOPS OR (rs10849442, source Caseonly, model rec): 0.59; WOSCOPS OR (rs10889215, source cohort, model add): 1.95; WOSCOPS OR (rs11076320, source Caseonly, model dom): 0.68; WOSCOPS OR (rs11610993, source Caseonly, model dom): 0.49; WOSCOPS OR (rs12155847, source Caseonly, model dom): 1.61; WOSCOPS OR (rs17347854, source Caseonly, model dom): 0.62; WOSCOPS OR (rs17740227, source Caseonly, model dom): 1.53; WOSCOPS OR (rs33910446, source Caseonly, model rec): 2.23; WOSCOPS OR (rs72746987, source Caseonly, model dom): 0.34

From patent publication US10563263B2, “Genetic polymorphisms associated with statin response and cardiovascular diseases, methods of detection and uses thereof” (CELERA CORPORATION, priority 2010, dated 2020)
